In US20110263693A1, “CELASTROL, GEDUNIN, AND DERIVATIVES THEREOF AS HSP90 INHIBITORS” (DANA-FARBER CANCER INSTITUTE, INC., priority 2006, published 2011):

How the values were obtained:
[1] = system: androgen signaling signature in LNCaP cells; assay: GE-HTS androgen signaling signature assay / screen; conditions: LNCaP, 1 nM R1881 plus compound ~20 μM, 24 hr; count of 3 replicates
LNCaP cells = assay: Viability screen, luminescent ATP quantitation assay; conditions: 1 nM R1881 plus compound ~20 μM, 3 days

Row | Compound | GE-HTS screen # replicates that score as the androgon deprived state (n = 3): KNN [1] | GE-HTS screen # replicates that score as the androgon deprived state (n = 3): Naïve Bayes classifier (P < 0.05) [1] | GE-HTS screen # replicates that score as the androgon deprived state (n = 3): unweighted summed score (P < 0.05) [1] | GE-HTS screen # replicates that score as the androgon deprived state (n = 3): weighted summed score (P < 0.05) [1] | viability screen: viability (% [ATP] normalized to R1881-treated control) (LNCaP cells)
1 | CC(=O)[C@H]1CC[C@H]2[C@@H]3CC=C4C[C@@H](O)CC[C@]4(C)[C@H]3CC[C@]12C [pregnenolone, reference compound] | 3 | 2 | 0 | 0 | 91.5%
2 | dihydrocelastryl diacetate | 2 | 0 | 3 | 0 | 50.7%
3 | estrone hemisuccinate [reference compound] | 3 | 3 | 0 | 1 | 71.9%
